According to patent publication US10576062B2, “Carbamoyloxymethyl triazole cyclohexyl acids as LPA antagonists” (Bristol-Myers Squibb Company, priority 2016, dated 2020):

molecular target: T1, human LPA1 (Homo sapiens, UniProt Q92633); assay: LPA1 functional antagonist assay (LPA-induced calcium flux); assay type: cell-based; settings: read-out: hLPA1 IC50
T1 construct: expressed in transfected cells; host or cells: Chinese hamster ovary (CHO) cells
Procedure, shortened: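 CHO cells overexpressing human LPA1, loaded with calcium dye 30 min at 37° C, were preincubated 20 min at room temperature with compound (0.08 nM–5 μM, 0.5% DMSO) in HBSS/20 mM HEPES/0.1% fatty acid-free BSA.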

T1 sequence (Q92633 whole entry): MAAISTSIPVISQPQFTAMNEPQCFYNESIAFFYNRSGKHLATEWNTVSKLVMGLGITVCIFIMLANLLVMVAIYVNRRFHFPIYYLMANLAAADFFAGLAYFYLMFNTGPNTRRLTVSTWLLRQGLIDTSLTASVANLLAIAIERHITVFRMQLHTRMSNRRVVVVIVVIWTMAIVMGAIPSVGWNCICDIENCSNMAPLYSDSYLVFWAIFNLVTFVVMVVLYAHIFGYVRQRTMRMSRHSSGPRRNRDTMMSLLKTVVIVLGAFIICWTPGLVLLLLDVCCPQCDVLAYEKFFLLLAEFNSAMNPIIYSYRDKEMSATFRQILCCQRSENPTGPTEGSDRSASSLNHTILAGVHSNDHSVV

| IC50 | Compound |
| --- | --- |
| 643 nM | Cc1nc(-c2nnn(C)c2COC(=O)N2CCOCC2)ccc1O[C@H]1CCC[C@H](C(=O)O)C1 [Example 114, (1S,3S)-3-((2-methyl-6-(1-methyl-5-(((morpholine-4-carbonyl)oxy)methyl)-1H-1,2,3-triazol-4-yl)pyridin-3-yl)oxy)cyclohexane-1-carboxylic acid] |
| 18 nM | Cc1nc(-c2nnn(C)c2COC(=O)N(C)CC2CC2)ccc1O[C@H]1CCC[C@H](C(=O)O)C1 [Example 115, (1S,3S)-3-((6-(5-((((cyclopropylmethyl)(methyl)carbamoyl)oxy)methyl)-1-methyl-1H-1,2,3-triazol-4-yl)-2-methylpyridin-3-yl)oxy)cyclohexane-1-carboxylic acid] |
| 29 nM | Cc1nc(-c2nnn(C)c2COC(=O)N(C)CC(C)C)ccc1O[C@H]1CCC[C@H](C(=O)O)C1 [Example 116, (1S,3S)-3-((6-(5-(((isobutyl(methyl)carbamoyl)oxy)methyl)-1-methyl-1H-1,2,3-triazol-4-yl)-2-methylpyridin-3-yl)oxy)cyclohexane-1-carboxylic acid] |
| 17 nM | Cc1nc(-c2nnn(C)c2COC(=O)N(C)CC2CCOCC2)ccc1O[C@H]1CCC[C@H](C(=O)O)C1 [Example 117, (1S,3S)-3-((2-methyl-6-(1-methyl-5-(((methyl((tetrahydro-2H-pyran-4-yl)methyl)carbamoyl)oxy)methyl)-1H-1,2,3-triazol-4-yl)pyridin-3-yl)oxy)cyclohexane-1-carboxylic acid] |
| 211 nM | Cc1nc(-c2nnn(C)c2COC(=O)N(C)Cc2ccccn2)ccc1O[C@H]1CCC[C@H](C(=O)O)C1 [Example 118, (1S,3S)-3-((2-methyl-6-(1-methyl-5-(((methyl(pyridin-2-ylmethyl)carbamoyl)oxy)methyl)-1H-1,2,3-triazol-4-yl)pyridin-3-yl)oxy)cyclohexane-1-carboxylic acid] |
| 809 nM | Cc1nc(-c2nnn(C)c2COC(=O)N(C)Cc2cccnc2)ccc1O[C@H]1CCC[C@H](C(=O)O)C1 [Example 120, (1S,3S)-3-((2-methyl-6-(1-methyl-5-(((methyl(pyridin-3-ylmethyl)carbamoyl)oxy)methyl)-1H-1,2,3-triazol-4-yl)pyridin-3-yl)oxy)cyclohexane-1-carboxylic acid] |
| 1090 nM | Cc1nc(-c2nnn(C)c2COC(=O)N(C)Cc2ncccn2)ccc1O[C@H]1CCC[C@H](C(=O)O)C1 [Example 121, (1S,3S)-3-((2-methyl-6-(1-methyl-5-(((methyl(pyrimidin-2-ylmethyl)carbamoyl)oxy)methyl)-1H-1,2,3-triazol-4-yl)pyridin-3-yl)oxy)cyclohexane-1-carboxylic acid] |
| 873 nM | Cc1nc(-c2nnn(C)c2COC(=O)N(C)Cc2ccncc2)ccc1O[C@H]1CCC[C@H](C(=O)O)C1 [Example 122, (1S,3S)-3-((2-methyl-6-(1-methyl-5-(((methyl(pyridin-4-ylmethyl)carbamoyl)oxy)methyl)-1H-1,2,3-triazol-4-yl)pyridin-3-yl)oxy)cyclohexane-1-carboxylic acid] |
| 618 nM | Cc1nc(-c2nnn(C)c2COC(=O)N(C)Cc2cnccn2)ccc1O[C@H]1CCC[C@H](C(=O)O)C1 [Example 123, (1S,3S)-3-((2-methyl-6-(1-methyl-5-(((methyl(pyrazin-2-ylmethyl)carbamoyl)oxy)methyl)-1H-1,2,3-triazol-4-yl)pyridin-3-yl)oxy)cyclohexane-1-carboxylic acid] |
| 982 nM | Cc1nc(-c2nnn(C)c2COC(=O)N(C)Cc2ccnn2C)ccc1O[C@H]1CCC[C@H](C(=O)O)C1 [Example 124, (1S,3S)-3-((2-methyl-6-(1-methyl-5-(((methyl((1-methyl-1H-pyrazol-5-yl)methyl)carbamoyl)oxy)methyl)-1H-1,2,3-triazol-4-yl)pyridin-3-yl)oxy)cyclohexane-1-carboxylic acid] |
| 668 nM | Cc1nc(-c2nnn(C)c2COC(=O)N(C)CC2COCCN2)ccc1O[C@H]1CCC[C@H](C(=O)O)C1 (stereo partly drawn) [Example 125, (1S,3S)-3-((2-methyl-6-(1-methyl-5-(((methyl(morpholin-3-ylmethyl)carbamoyl)oxy)methyl)-1H-1,2,3-triazol-4-yl)pyridin-3-yl)oxy)cyclohexane-1-carboxylic acid] |
| 346 nM | Cc1nc(-c2nnn(C)c2COC(=O)N(C)CC2CCOC2)ccc1O[C@H]1CCC[C@H](C(=O)O)C1 (stereo partly drawn) [Example 126, (1S,3S)-3-((2-methyl-6-(1-methyl-5-(((methyl((tetrahydrofuran-3-yl)methyl)carbamoyl)oxy)methyl)-1H-1,2,3-triazol-4-yl)pyridin-3-yl)oxy)cyclohexane-1-carboxylic acid] |
| 33 nM | CCCCN(CC)C(=O)OCc1c(-c2ccc(O[C@H]3CCC[C@H](C(=O)O)C3)c(C)n2)nnn1C [Example 127, (1S,3S)-3-((6-(5-(((butyl(ethyl)carbamoyl)oxy)methyl)-1-methyl-1H-1,2,3-triazol-4-yl)-2-methylpyridin-3-yl)oxy)cyclohexane-1-carboxylic acid] |
| 158 nM | CCCN(CC)C(=O)OCc1c(-c2ccc(O[C@H]3CCC[C@H](C(=O)O)C3)c(C)n2)nnn1C [Example 128, (1S,3S)-3-((6-(5-(((ethyl(propyl)carbamoyl)oxy)methyl)-1-methyl-1H-1,2,3-triazol-4-yl)-2-methylpyridin-3-yl)oxy)cyclohexane-1-carboxylic acid] |
| 352 nM | Cc1nc(-c2nnn(C)c2COC(=O)N(C)C2(C(C)C)CC2)ccc1O[C@H]1CCC[C@H](C(=O)O)C1 [Example 129, (1S,3S)-3-((6-(5-((((1-isopropylcyclopropyl)(methyl)carbamoyl)oxy)methyl)-1-methyl-1H-1,2,3-triazol-4-yl)-2-methylpyridin-3-yl)oxy)cyclohexane-1-carboxylic acid] |
| 243 nM | Cc1nc(-c2nnn(C)c2COC(=O)N(C)C2(CC(C)C)CC2)ccc1O[C@H]1CCC[C@H](C(=O)O)C1 [Example 130, (1S,3S)-3-((6-(5-((((1-isobutylcyclopropyl)(methyl)carbamoyl)oxy)methyl)-1-methyl-1H-1,2,3-triazol-4-yl)-2-methylpyridin-3-yl)oxy)cyclohexane-1-carboxylic acid] |
| 187 nM | CCC1(N(C)C(=O)OCc2c(-c3ccc(O[C@H]4CCC[C@H](C(=O)O)C4)c(C)n3)nnn2C)CC1 [Example 131, (1S,3S)-3-((6-(5-((((1-ethylcyclopropyl)(methyl)carbamoyl)oxy)methyl)-1-methyl-1H-1,2,3-triazol-4-yl)-2-methylpyridin-3-yl)oxy)cyclohexane-1-carboxylic acid] |
| 180 nM | CCCC1(N(C)C(=O)OCc2c(-c3ccc(O[C@H]4CCC[C@H](C(=O)O)C4)c(C)n3)nnn2C)CCC1 [Example 132, (1S,3S)-3-((2-methyl-6-(1-methyl-5-(((methyl(1-propylcyclobutyl)carbamoyl)oxy)methyl)-1H-1,2,3-triazol-4-yl)pyridin-3-yl)oxy)cyclohexane-1-carboxylic acid] |
| 174 nM | CCC1(N(C)C(=O)OCc2c(-c3ccc(O[C@H]4CCC[C@H](C(=O)O)C4)c(C)n3)nnn2C)CCC1 [Example 133, (1S,3S)-3-((6-(5-((((1-ethylcyclobutyl)(methyl)carbamoyl)oxy)methyl)-1-methyl-1H-1,2,3-triazol-4-yl)-2-methylpyridin-3-yl)oxy)cyclohexane-1-carboxylic acid] |
| 76 nM | Cc1nc(-c2nnn(C)c2COC(=O)N2CC3(CCC3)C2)ccc1O[C@H]1CCC[C@H](C(=O)O)C1 [Example 134, (1S,3S)-3-((6-(5-(((2-azaspiro[3.3]heptane-2-carbonyl)oxy)methyl)-1-methyl-1H-1,2,3-triazol-4-yl)-2-methylpyridin-3-yl)oxy)cyclohexane-1-carboxylic acid] |
| 47 nM | Cc1nc(-c2nnn(C)c2COC(=O)N2CCC3(CCC3)C2)ccc1O[C@H]1CCC[C@H](C(=O)O)C1 [Example 135, (1S,3S)-3-((6-(5-(((6-azaspiro[3.4]octane-6-carbonyl)oxy)methyl)-1-methyl-1H-1,2,3-triazol-4-yl)-2-methylpyridin-3-yl)oxy)cyclohexane-1-carboxylic acid] |
| 36 nM | Cc1nc(-c2nnn(C)c2COC(=O)N(C)C2CCC2)ccc1O[C@H]1CCC[C@H](C(=O)O)C1 [Example 136, (1S,3S)-3-((6-(5-(((cyclobutyl(methyl)carbamoyl)oxy)methyl)-1-methyl-1H-1,2,3-triazol-4-yl)-2-methylpyridin-3-yl)oxy)cyclohexane-1-carboxylic acid] |
| 292 nM | Cc1nc(-c2nnn(C)c2COC(=O)N2CCCC(C)(C)C2)ccc1O[C@H]1CCC[C@H](C(=O)O)C1 [Example 137, (1S,3S)-3-((6-(5-(((3,3-dimethylpiperidine-1-carbonyl)oxy)methyl)-1-methyl-1H-1,2,3-triazol-4-yl)-2-methylpyridin-3-yl)oxy)cyclohexane-1-carboxylic acid] |
| 98 nM | Cc1nc(-c2nnn(C)c2COC(=O)N(C)C(C)C)ccc1O[C@H]1CCC[C@H](C(=O)O)C1 [Example 138] |
| 70 nM | Cc1nc(-c2nnn(C)c2COC(=O)N(C)C2CC(F)(F)C2)ccc1O[C@H]1CCC[C@H](C(=O)O)C1 [Example 139, (1S,3S)-3-((6-(5-((((3,3-difluorocyclobutyl)(methyl)carbamoyl)oxy)methyl)-1-methyl-1H-1,2,3-triazol-4-yl)-2-methylpyridin-3-yl)oxy)cyclohexane-1-carboxylic acid] |
| 148 nM | Cc1nc(-c2nnn(C)c2COC(=O)N2CCC(C)(C)C2)ccc1O[C@H]1CCC[C@H](C(=O)O)C1 [Example 140, (1S,3S)-3-((6-(5-(((3,3-dimethylpyrrolidine-1-carbonyl)oxy)methyl)-1-methyl-1H-1,2,3-triazol-4-yl)-2-methylpyridin-3-yl)oxy)cyclohexane-1-carboxylic acid] |
| 283 nM | Cc1nc(-c2nnn(C)c2COC(=O)N(C)C2CC(F)(F)C2)ccc1O[C@H]1CCC[C@@H](C(=O)O)C1 [Example 141, (1R,3S)-3-((6-(5-((((3,3-difluoro-cyclobutyl)(methyl)carbamoyl)oxy)methyl)-1-methyl-1H-1,2,3-triazol-4-yl)-2-methylpyridin-3-yl)oxy)cyclohexane-1-carboxylic acid] |
